Converted amounts (≈) assume the structure as drawn.
Columns and labels:
[1] = tested on: Trichophyton mentagr.; test: Antifungal in vitro activity, agar dilution test (MIC); type: cell-based, Trichophyton mentagrophytes; conditions: Kimmig agar, inoculum 2 - 5 x 10^3 fungal particles per spot, dermatophytes 96 h, 27°C
Source text: (§1) Versuchsbeschreibung: • Die in-vitro-Wirksamkeit - gemessen anhand der minimalen Hemmkonzentration - wurde im Agarverdünnungstest ermittelt. Auf Serien von Kimmig - Agarplatten, die die entsprechenden Wirkstoffkonzentrationen im Agar gelöst enthielten, wurden mit Hilfe eines automatischen Beimpfungsgerätes Proben der Keimsuspesionen tropfenförmig aufgebracht. Das Inokulum betrug 2 - 5 x 10^3 Pilzpartikel pro Impfpunkt. Im Falle der Hefen lag die Bebrütungsdauer bei 24 Stunden, im Falle der Dermatophyten bei 96 Stunden; Bebrütungstemperatur 27°C.

[2] = tested on: Aspergillus fumigatus; test: as above; type: cell-based; conditions: Kimmig agar, inoculum 2 - 5 x 10^3 fungal particles per spot, 27°C
Source text: as §1

[3] = tested on: Candida albicans; test: as above; type: cell-based; conditions: Kimmig agar, inoculum 2 - 5 x 10^3 fungal particles per spot, yeasts 24 h, 27°C
Source text: as §1

[4] = tested on: Microsporon canis; test: as above; type: cell-based; conditions: Kimmig agar, inoculum 2 - 5 x 10^3 fungal particles per spot, dermatophytes 96 h, 27°C
Source text: as §1

[5] = tested on: Torulopsis glabrata; test: as above; type: cell-based; conditions: Kimmig agar, inoculum 2 - 5 x 10^3 fungal particles per spot, yeasts 24 h, 27°C
Source text: as §1

[6] = tested on: Candida-Zellen; test: Antimicrobial in vivo activity (oral) in mouse candidosis; parameters: species or system Mäuse vom Typ SPF-CF; conditions: mice infected i.v. with Candida; 12,5 bis 25mg/kg 2 x daily over 5 days oral; survivors on day 6 p.i.
Procedure: Mäuse vom Typ SPF-CF werden intravenös mit 1-2 x 10^6 1 logarithmisch wachsenden Candida-Zellen, suspendiert in physiologischer Kochsalzlösung, infiziert. Die Tiere werden mit Dosierungen von 12,5 bis 25mg/kg Körpergewicht 2 x täglich über 5 Tage oral behandelt.
Unbehandelte Tiere starben 3 bis 6 Tage post infektionem. Die Ueberlebensrate am 6.Tag post infektionem betrug bei unbehandelten Kontrolltieren etwa 5 %.

[7] = tested on: Trichophyton mentagrophytes; test: Antimicrobial in vivo activity (local and oral) in experimental guinea pig trichophytosis; parameters: species or system Meerschweinchen der Rasse Pirbright-white; conditions: for Wirkung lokale Therapie (1%-ige Lösung): local, 1 x daily from day 3 p.i., 1% solution in Dimethylsulfoxid : Glycerin = 1 : 4
Source text: Versuchsbeschreibung: • Weiße Meerschweinchen der Rasse Pirbright-white werden auf dem geschorenen, nicht skarifizierten Rücken mit einer Mikro- und Makrokonidien-Suspension von Trichophyton mentagrophytes infiziert. Bei unbehandelten Tieren entwickelt sich innerhalb 12 Tagen p.i. das typische Bild einer Dermatophytose mit Rötung, Schuppung und Haarausfall bis zum totalen Integument-Defekt an der Infektionsstelle. […]

Row | Compound | Minimale Hemmkonzentration [1] [µg/mL] | Minimale Hemmkonzentration [2] [µg/mL] | Minimale Hemmkonzentration [3] [µg/mL] | Minimale Hemmkonzentration [4] [µg/mL] | Minimale Hemmkonzentration [5] [µg/mL] | Wirkung [6] | Wirkung lokale Therapie (1%-ige Lösung) [7] | Wirkung orale Therapie (50mg/kg/die) ([7]; oral, 1 x daily from day of infection, aqueous solution) | MIC ([5]; Nakaseomyces glabratus, 24 h, read-out: Minimale Hemmkonzentration) [µg/mL]
1 | CC(C)(C)C(O)C(=Cc1ccc(Cl)cc1)n1cncn1 (single isomer, unassigned) [Form B(1), 1-(4-Chlorphenyl)-4,4-dimethyl-2-(1,2,4-triazol-1-yl)-1-penten-3-ol] | <1 | 1 to 4 | <1 | <1 | <1 | +++++ (sehr gute Wirkung = >95% Ueberlebende am 6.Tag p.i.) | sehr gute Wirkung | sehr gute Wirkung | 
2 | CC(C)(C)C(O)C(=Cc1ccc(Cl)cc1)n1cncn1 (single isomer, unassigned) [Form A, 1-(4-Chlorphenyl)-4,4-dimethyl-2-(1,2,4-triazol-1-yl)-1-penten-3-ol] | 4 | 32 | 4 | 32 |  | kW (keine Wirkung) |  |  | 1 (≈ 3.43 µM)
3 | 1-(4-Chlorphenyl)-4,4-dimethyl-2-(1,2,4-triazol-1-yl)-1-penten-3-ol [geometrisches Isomerengemisch (bekannt)] | <1 | 8 | 8 | 8 | 4 | +++ (Wirkung = ≥60% Ueberlebende am 6.Tag p.i.) | schwache Wirkung |  | 
